Data from PubChem BioAssay (NCI).
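These data come from cells grown in 96-well plates and exposed to compound for 48 hours at five concentrations. Definition used: TGI = concentration required for complete inhibition of growth.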

Assays:
Assay in all cases: DTP human tumour cell line panel, 48 h
[1] = system: SK-OV-3 ovarian
[2] = system: DU-145 prostate
[3] = system: SR leukemia
[4] = system: HCT-116 colon
[5] = system: SNB-19 CNS
[6] = system: IGROV1 ovarian
[7] = system: SNB-75 CNS
[8] = system: U251 CNS
[9] = system: NCI-H23 lung
[10] = system: LOX IMVI melanoma
[11] = system: A549 NSCLC
[12] = system: K-562 leukemia
[13] = system: OVCAR-3 ovarian
[14] = system: PC-3 prostate
[15] = system: KM12 colon
[16] = system: COLO 205 colon
[17] = system: EKVX NSCLC
[18] = system: HOP-62 NSCLC
[19] = system: UACC-62 melanoma
[20] = system: NCI-H460 lung
[21] = system: OVCAR-5 ovarian
[22] = system: T-47D breast
[23] = system: BT-549 breast
[24] = system: ACHN renal
[25] = system: OVCAR-4 ovarian
[26] = system: TK-10 renal
[27] = system: SF-295 CNS
[28] = system: RPMI-8226 leukemia
[29] = system: HCT-15 colon
[30] = system: SK-MEL-5 melanoma
[31] = system: SW-620 colon
[32] = system: NCI/ADR-RES ovarian
[33] = system: UACC-257 melanoma
[34] = system: OVCAR-8 ovarian
[35] = system: HT29 colon
[36] = system: SN12C renal
[37] = system: MDA-MB-231 breast
[38] = system: MDA-N
[39] = system: MDA-MB-435
[40] = system: HL-60(TB) leukemia
[41] = system: CAKI-1 renal
[42] = system: 786-0 renal
[43] = system: SF-539 CNS
[44] = system: SK-MEL-2 melanoma
[45] = system: MCF7 breast
[46] = system: MOLT-4 leukemia
[47] = system: CCRF-CEM leukemia
[48] = system: UO-31 renal
[49] = system: RXF 393 renal
[50] = system: M14 melanoma
[51] = system: HOP-92 NSCLC
[52] = system: SK-MEL-28 melanoma
[53] = system: NCI-H226 lung
[54] = system: SF-268 CNS
[55] = system: MALME-3M melanoma
[56] = system: NCI-H522 lung
[57] = system: HCC-2998 colon
[58] = system: A498 renal
[59] = system: HS 578T breast

COc1cc(Br)cc2cc(C3=CSC4=NCCN34)c(=O)oc12
TGI [1]: 66.2 µM | TGI [2]: 33 µM | TGI [3]: 63.4 µM | TGI [4]: 32.2 µM | TGI [5]: 33.4 µM | TGI [6]: 32.5 µM | TGI [7]: 43.3 µM | TGI [8]: 32.6 µM | TGI [9]: 40.8 µM | TGI [10]: 33.7 µM | TGI [11]: 50.8 µM | TGI [12]: > 100 µM | TGI [13]: 33.1 µM | TGI [14]: 35.6 µM | TGI [15]: 39 µM | TGI [16]: 43.5 µM | TGI [17]: 32.3 µM | TGI [18]: 34.9 µM | TGI [19]: 33.6 µM | TGI [20]: 40.3 µM | TGI [21]: 54.5 µM | TGI [22]: 42.2 µM | TGI [23]: 42.2 µM | TGI [24]: 80.6 µM | TGI [25]: 37.2 µM | TGI [26]: 34.8 µM | TGI [27]: 35.8 µM | TGI [28]: 55.3 µM | TGI [29]: 37.2 µM | TGI [30]: 35.3 µM | TGI [31]: 49.1 µM | TGI [32]: > 100 µM | TGI [33]: 65.8 µM | TGI [34]: 34.4 µM | TGI [35]: 34.7 µM | TGI [36]: 32 µM | TGI [37]: 36 µM | TGI [38]: 34.4 µM | TGI [39]: 33.9 µM | TGI [40]: 77.6 µM | TGI [41]: > 100 µM | TGI [42]: 32.7 µM | TGI [43]: 37.4 µM | TGI [44]: 40 µM | TGI [45]: 33 µM | TGI [46]: 69.5 µM | TGI [47]: 56.8 µM | TGI [48]: 35.6 µM | TGI [49]: 34.6 µM | TGI [50]: 49.4 µM | TGI [51]: 36.7 µM | TGI [52]: 59.4 µM

Cc1[nH]c2nccn2c(=O)c1CCCl
TGI [1]: 63 µM | TGI [2]: 66.7 µM | TGI [3]: 90.7 µM | TGI [4]: 32.3 µM | TGI [5]: > 100 µM | TGI [6]: 61.8 µM | TGI [7]: > 100 µM | TGI [8]: 43.8 µM | TGI [9]: 41.6 µM | TGI [10]: 33.6 µM | TGI [11]: > 100 µM | TGI [53]: > 100 µM | TGI [12]: 93.5 µM | TGI [13]: 62.1 µM | TGI [14]: > 100 µM | TGI [15]: 42.2 µM | TGI [16]: > 100 µM | TGI [17]: > 100 µM | TGI [54]: > 100 µM | TGI [18]: 60 µM | TGI [19]: 53.7 µM | TGI [20]: 49.5 µM | TGI [21]: > 100 µM | TGI [22]: > 100 µM | TGI [23]: 62.5 µM | TGI [55]: 41.3 µM | TGI [24]: 55 µM | TGI [25]: 40 µM | TGI [26]: 96.7 µM | TGI [27]: > 100 µM | TGI [28]: 62.9 µM | TGI [29]: > 100 µM | TGI [30]: 31.3 µM | TGI [31]: 50.8 µM | TGI [56]: 49.9 µM | TGI [32]: 58.1 µM | TGI [33]: > 100 µM | TGI [34]: 87.6 µM | TGI [35]: > 100 µM | TGI [36]: 45.4 µM | TGI [37]: > 100 µM | TGI [38]: 46.6 µM | TGI [40]: 57.2 µM | TGI [57]: 34.1 µM | TGI [42]: 64.6 µM | TGI [43]: 36.6 µM | TGI [58]: 61.8 µM | TGI [45]: > 100 µM | TGI [59]: > 100 µM | TGI [46]: 52.9 µM | TGI [47]: 85.4 µM | TGI [48]: 91.4 µM | TGI [49]: 38.9 µM | TGI [50]: > 100 µM | TGI [51]: 66.1 µM | TGI [52]: > 100 µM
